Results reported in ChEMBL document CHEMBL5131504, “Anthraquinone derivatives as ADP-competitive inhibitors of liver pyruvate kinase” (Eur J Med Chem, 2022).

Legend:
Pyruvate kinase PKLR [1] = target: T1, Pyruvate kinase PKLR (Homo sapiens, UniProt P30613); assay: Inhibition of PKL (unknown origin) at 10 uM for 30 mins by Kinase-Glo Max reagent based luminescence assay
Target sequence in this assay (P30613 whole entry, looked up): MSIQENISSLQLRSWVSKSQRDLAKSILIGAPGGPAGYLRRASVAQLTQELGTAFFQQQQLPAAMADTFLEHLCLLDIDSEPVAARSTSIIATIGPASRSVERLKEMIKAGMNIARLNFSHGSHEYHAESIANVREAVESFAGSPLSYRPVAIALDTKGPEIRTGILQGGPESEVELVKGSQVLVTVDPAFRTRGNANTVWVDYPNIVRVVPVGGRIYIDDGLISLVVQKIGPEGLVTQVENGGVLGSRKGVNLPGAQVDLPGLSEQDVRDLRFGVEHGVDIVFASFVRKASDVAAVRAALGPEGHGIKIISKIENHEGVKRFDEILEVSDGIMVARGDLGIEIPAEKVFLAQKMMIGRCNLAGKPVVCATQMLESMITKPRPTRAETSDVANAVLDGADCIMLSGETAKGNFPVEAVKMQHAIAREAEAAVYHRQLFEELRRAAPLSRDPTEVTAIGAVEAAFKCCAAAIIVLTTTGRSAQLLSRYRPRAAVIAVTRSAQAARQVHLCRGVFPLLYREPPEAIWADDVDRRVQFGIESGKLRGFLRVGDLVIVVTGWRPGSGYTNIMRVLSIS

Pyruvate kinase PKLR [2] = target: T1, Pyruvate kinase PKLR; assay: Inhibition of PKL (unknown origin) for 30 mins by Kinase-Glo Max reagent based luminescence assay
Target sequence in this assay (P30613 whole entry): as the sequence (P30613 whole entry, looked up) above

Pyruvate kinase PKLR [3] = target: T1, Pyruvate kinase PKLR; assay: Inhibition of PKL in human PKM2 knockout HepG2 cells at 10 uM incubated for 5 mins by Microplate reader based analysis relative to control; type: cell-based
Target sequence in this assay (P30613 whole entry, looked up): as above

Structure (SMILES) | inhibition (Pyruvate kinase PKLR [1]) | IC50 (Pyruvate kinase PKLR [2]) | inhibition (Pyruvate kinase PKLR [3])
O=C(O)CNC(=O)CNC(=O)CNS(=O)(=O)c1cc2c(c(O)c1O)C(=O)c1ccccc1C2=O | 92% | 700 nM | –
COc1c(S(=O)(=O)O)cc2c(c1OC)C(=O)c1ccccc1C2=O | 19% | – | –
O=C(O)CC(Nc1cc2c(c(O)c1O)C(=O)c1ccccc1C2=O)C(=O)O (stereo not given) | 90% | 2500 nM | 83.5%
O=C1c2ccccc2C(=O)c2cc(S(=O)(=O)O)c(O)cc21 | 95% | 3400 nM | –
O=C1c2ccccc2C(=O)c2cc(S(=O)(=O)N3CCCC(C(=O)O)C3)c(O)cc21 (stereo not given) | 58% | – | 40.6%
CS(=O)(=O)c1cccc(-c2cc3c(c(O)c2O)C(=O)c2ccccc2C3=O)c1 | 31% | – | –
O=C(O)Cc1ccc(CNc2cc3c(c(O)c2O)C(=O)c2ccccc2C3=O)cc1 | 96% | 3800 nM | 82.5%
O=C(O)C[C@H](NC(=O)C1CCN(S(=O)(=O)c2cc3c(c(O)c2O)C(=O)c2ccccc2C3=O)CC1)C(=O)O | 35% | – | –
O=C(O)Cc1ccc(CNc2cc3c(c(O)c2O)C(=O)c2ccccc2C3=O)cc1C(=O)O | 79% | 1300 nM | 79.3%
O=C(O)Cc1ccc(CNc2cc3c(cc2O)C(=O)c2ccccc2C3=O)cc1C(=O)O | 94% | – | 50.2%
O=C(O)CC[C@H](NC(=O)C1CCCN(S(=O)(=O)c2cc3c(c(O)c2O)C(=O)c2ccccc2C3=O)C1)C(=O)O (stereo not given in full) | 94% | 1300 nM | –
NS(=O)(=O)c1cccc(-c2cc3c(c(O)c2O)C(=O)c2ccccc2C3=O)c1 | 66% | – | –
O=C1c2ccccc2C(=O)c2c1cc(-c1ccc(O)c(O)c1)c(O)c2O | 16% | – | –
O=C(O)c1cc2c(c(O)c1O)C(=O)c1ccccc1C2=O | 94% | 1400 nM | –
O=C1c2ccccc2C(=O)c2c1cc(S(=O)(=O)N1CCCC(C(=O)N[C@@H](Cc3c[nH]cn3)C(=O)O)C1)c(O)c2O (stereo not given in full) | 27% | – | –
O=C(O)Cc1ccc(CNC(=O)N2CCN(S(=O)(=O)c3cc4c(c(O)c3O)C(=O)c3ccccc3C4=O)CC2)cc1C(=O)O | 99% | 290 nM | –
O=C(O)C[C@H](NC(=O)C1CCCN(S(=O)(=O)c2cc3c(c(O)c2O)C(=O)c2ccccc2C3=O)C1)C(=O)O (stereo not given in full) | 72% | 1900 nM | –
CSCCC(NS(=O)(=O)c1cc2c(c(O)c1O)C(=O)c1ccccc1C2=O)C(=O)O (stereo not given) | 78% | 1400 nM | –
O=C(O)Cc1ccc(CNC(=O)Nc2cc3c(c(O)c2O)C(=O)c2ccccc2C3=O)cc1C(=O)O | 61% | 1700 nM | 34%
O=C(O)CC(O)(CC(=O)N1CCN(C(=O)c2cc3c(c(O)c2O)C(=O)c2ccccc2C3=O)CC1)C(=O)O (stereo not given) | -1% | – | –
O=C(O)CC(O)(CC(=O)N1CCN(S(=O)(=O)c2cc3c(c(O)c2O)C(=O)c2ccccc2C3=O)CC1)C(=O)O (stereo not given) | 100% | 200 nM | –
O=C1c2ccccc2C(=O)c2c1cc(S(=O)(=O)O)c(O)c2O [Alizarin Red S] | 100% | 200 nM | 54%
O=C1c2ccccc2C(=O)c2c1cc(S(=O)(=O)N1CCCC(C(=O)O)C1)c(O)c2O (stereo not given) | 92% | 160 nM | –
O=C(O)CNS(=O)(=O)c1cc2c(cc1O)C(=O)c1ccccc1C2=O | 86% | – | 78.7%

Structure (SMILES) | inhibition (Pyruvate kinase PKLR [1]) | IC50 (Pyruvate kinase PKLR [2]) | inhibition (Pyruvate kinase PKLR [3])
O=C1c2ccccc2C(=O)c2cc(S(=O)(=O)N3CCN(C(=O)CC(O)(C(=O)O)C(=O)O)CC3)c(O)cc21 | 63% | – | 22.6%
O=C(O)CCCNS(=O)(=O)c1cc2c(c(O)c1O)C(=O)c1ccccc1C2=O | 101% | 7500 nM | –
COC[C@H](NS(=O)(=O)c1cc2c(c(O)c1O)C(=O)c1ccccc1C2=O)C(=O)O | 101% | 1200 nM | –
O=C(O)CC(O)(CC(=O)N1CCN(S(=O)(=O)c2cc(O)c3c(c2)C(=O)c2ccccc2C3=O)CC1)C(=O)O (stereo not given) | 3% | – | –
O=C1c2ccccc2C(=O)c2c1ccc(O)c2O | 51% | – | –
O=C(O)Cc1ccc(CNS(=O)(=O)c2cc3c(c(O)c2O)C(=O)c2ccccc2C3=O)cc1C(=O)O | 99% | 300 nM | –
O=C(O)CCCCNS(=O)(=O)c1cc2c(c(O)c1O)C(=O)c1ccccc1C2=O | 97% | 19000 nM | –
O=C1c2ccccc2C(=O)c2c1cc(C(=O)N1CCNCC1)c(O)c2O | 22% | – | –
O=C(O)Cc1ccc(CNc2cc3c(cc2O)C(=O)c2ccccc2C3=O)cc1 | 76% | – | 41.1%
O=C(O)CC(Nc1cc2c(cc1O)C(=O)c1ccccc1C2=O)C(=O)O (stereo not given) | 57% | – | 59.7%
O=C(O)CCNS(=O)(=O)c1cc2c(c(O)c1O)C(=O)c1ccccc1C2=O | 102% | 5800 nM | –
O=C(O)CC[C@H](NC(=O)C1CCN(S(=O)(=O)c2cc3c(c(O)c2O)C(=O)c2ccccc2C3=O)CC1)C(=O)O | 45% | – | –
O=C1c2ccccc2C(=O)c2cc(S(=O)(=O)O)ccc21 | 45% | – | –
O=C1c2ccccc2C(=O)c2c1cc(S(=O)(=O)N1CCC(C(=O)O)CC1)c(O)c2O | 87% | 4800 nM | –
O=C1c2ccccc2C(=O)c2c1cc(-c1ccc(O)cc1)c(O)c2O | 39% | – | –
O=C1c2ccccc2C(=O)c2c(O)cc(S(=O)(=O)O)cc21 | 65% | 7300 nM | –
O=C(O)CNS(=O)(=O)c1cc2c(c(O)c1O)C(=O)c1ccccc1C2=O | 100% | 200 nM | –
O=C1c2ccccc2C(=O)c2c1cc(S(=O)(=O)N[C@@H](CO)C(=O)O)c(O)c2O | 97% | 900 nM | –
O=C(O)CNC(=O)CNS(=O)(=O)c1cc2c(c(O)c1O)C(=O)c1ccccc1C2=O | 102% | 4100 nM | –
Nc1c(S(=O)(=O)O)cc2c(c1O)C(=O)c1ccccc1C2=O | 77% | – | –
O=C(O)CC[C@H](NC(=O)N1CCN(S(=O)(=O)c2cc3c(c(O)c2O)C(=O)c2ccccc2C3=O)CC1)C(=O)O | 99% | 550 nM | –
O=C(O)CNc1cc2c(cc1O)C(=O)c1ccccc1C2=O | 82% | – | 82.7%
O=C1c2ccccc2C(=O)c2c1cc(S(=O)(=O)N1CCNCC1)c(O)c2O | 98% | 150 nM | –
